Results taken from US3991052A (priority 1975, dated 1976).
In brackets after ≈: the same amount, converted by molar mass.

Legend:
Proteus morganii PR15 = test: MIC, standard agar-dilution assay; format: cell-based; conditions: Morganella morganii
[1] = tested on: Citrobacter freundii MX CF17; test: MIC, standard agar-dilution assay; format: cell-based; conditions: MXCF17
Blastomyces dermatitidis = test: MIC, standard agar-dilution assay; format: cell-based
[2] = tested on: Klebsiella pneumoniae KL14; test: MIC, standard agar-dilution assay; format: cell-based
C. albicans = test: dermal C. albicans infection in rabbits, topical treatment; format: in vivo; conditions: ten days treatment with 1% solution in propylene glycol
Ceratocystis ulmi = test: MIC, standard agar-dilution assay; format: cell-based
[3] = tested on: Staphylococcus aureus 3074; test: MIC, standard agar-dilution assay; format: cell-based
[4] = toxicity (LD50) in mice, intraperitoneal; conditions: mouse, in vivo, ip, intraperitoneally
Escherichia coli EC14 = test: MIC, standard agar-dilution assay; format: cell-based
[5] = tested on: Pseudomonas solanacearum X185; test: microbe, parasite or virus in culture; format: cell-based; conditions: Ralstonia solanacearum
Histoplasma capsulatum = test: microbe, parasite or virus in culture; format: cell-based
[6] = tested on: Streptococcus faecalis X66; test: MIC, standard agar-dilution assay; format: cell-based; conditions: Enterococcus faecalis
[7] = tested on: Trichophyton mentagrophytes 27; test: MIC, standard agar-dilution assay; format: cell-based
Salmonella typhimurium = test: MIC, standard agar-dilution assay; format: cell-based; conditions: Salmonella enterica
Candida albicans = test: standard disc-diffusion assay; format: cell-based
[8] = tested on: Bordetella bronchiseptica 16; test: MIC, standard agar-dilution assay; format: cell-based
Aspergillus flavus E = test: MIC, standard agar-dilution assay; format: cell-based
Serratia marcescens SE3 = test: MIC, standard agar-dilution assay; format: cell-based
Salmonella typhosa SA12 = test: MIC, standard agar-dilution assay; format: cell-based; conditions: Salmonella enterica
Erwinia amylovora = test: MIC, standard agar-dilution assay; format: cell-based
Candida tropicalis Z17 = test: MIC, standard agar-dilution assay; format: cell-based
Cryptococcus neoformans = test: MIC, standard agar-dilution assay; format: cell-based
[9] = tested on: Staphylococcus aureus 3055; test: MIC, standard agar-dilution assay; format: cell-based
[10] = tested on: Pseudomonas aeruginosa X239; test: MIC, standard agar-dilution assay; format: cell-based

With `COC1c2cc(Cl)c(O)cc2ON2C(=O)C3NC(=O)C12SS3` (stereo not drawn) as the compound, how does the MIC (Proteus morganii PR15) read?
Its MIC is > 100 µg/mL.

And the MIC [1]?
The MIC was > 100 µg/mL.

And the MIC (Blastomyces dermatitidis)?
Its MIC is 10 µg/mL (≈ 27.7 µM).

What about the MIC [2] of the same compound?
The MIC was > 100 µg/mL.

What about the “lesions caused by a dermal C. albicans infection” value (C. albicans) of the same compound?
Its value is “reduced in severity and size”.

What about the MIC (Ceratocystis ulmi) of the same compound?
Its MIC is 12.5 µg/mL (≈ 34.6 µM).

And the MIC [3]?
Its MIC is 0.78 µg/mL (≈ 2.16 µM).

And the LD50 [4]?
Its LD50 is 106 mg/kg.

And the MIC (Escherichia coli EC14)?
Its MIC is > 100 µg/mL.

And the MIC [5]?
The MIC was > 100 µg/mL.

What about the MIC (Histoplasma capsulatum) of the same compound?
The MIC was 10 µg/mL (≈ 27.7 µM).

And the MIC [6]?
Its MIC is > 100 µg/mL.

And the MIC [7]?
Its MIC is 25 µg/mL (≈ 69.3 µM).

And the MIC (Salmonella typhimurium)?
The MIC was > 100 µg/mL.

And the “amount inhibiting Candida albicans” value (Candida albicans)?
Its value is “less than 0.312 mcg per disc”.

What about the MIC [8] of the same compound?
Its MIC is 50 µg/mL (≈ 139 µM).

And the MIC (Aspergillus flavus E)?
The MIC was 25 µg/mL (≈ 69.3 µM).

And the MIC (Serratia marcescens SE3)?
Its MIC is > 100 µg/mL.

And the MIC (Salmonella typhosa SA12)?
Its MIC is > 100 µg/mL.

And the MIC (Erwinia amylovora)?
The MIC was 6.25 µg/mL (≈ 17.3 µM).

What about the MIC (Candida tropicalis Z17) of the same compound?
Its MIC is > 100 µg/mL.

And the MIC (Cryptococcus neoformans)?
The MIC was < 0.156 µg/mL.

And the MIC [9]?
Its MIC is 3.12 µg/mL (≈ 8.65 µM).

What about the MIC [10] of the same compound?
Its MIC is > 100 µg/mL.
